Legend:
[1] = tested on: anemia after sub-lethal irradiation in WT mice; test: Sub-lethal irradiation anemia model in WT mice, fluoxetine versus placebo (FIG. 5A, 5B); assay type: in vivo, mouse; settings: fluoxetine for 7 days followed by sub-lethal irradiation
[2] = tested on: chemotherapy induced aplasia; test: Human cohort study: effect of SSRI on chemotherapy-induced aplasia after autologous HSCT (FIG. 6); assay type: in vivo; settings: patients at the time of autologous HSCT after myeloablative chemotherapy, versus matched controls not under SSRI
Description: FIG. 6. Human cohort study (effect of SSRI on chemotherapy induced aplasia). A reduced duration of aplasia is observed in patients treated with SSRI at the time of autologous HSCT (x), in comparison with the duration of aplasia observed for patients having not been under SSRI medication (+).
In order to evaluate the impact of treatment with SSRI on chemotherapy-induced aplasia, data of all patients benefiting from autologous hematopoietic stem cell transplantation (HSCT) from 2010 to 2017 in the hematology department of Necker Hospital, Paris, France were screened. Data from 22 patients who were under therapy with SSRI for usual indications at the time of autologous HSCT retrospectively reviewed, and compared with 66 control patients (3 controls per patient) matched for confounding factors (age, sex, disease, response of disease before therapy, conditioning regimen, date of transplant and number of CD34+ cells injected). It is observed a reduced duration of aplasia (a criterion of which, commonly described in the art, being a number of polynuclear neutrophils below 500/mm^3) in patients who were treated with SSRI at the time of autologous HSCT.

[3] = tested on: irradiation-induced cytopenia in WT C57BL/6 mice; test: Sub-lethal irradiation-induced cytopenia in mice: SSRI, hematopoietic growth factor or both (FIG. 7, 8, 9, Table 1); assay type: in vivo, mouse; settings: At Day 17 from sublethal irradiation
[4] = tested on: CD71+/TER119+ population in Tph1+/- mice; test: Sub-lethal irradiation in Tph1+/- mice, fluoxetine versus placebo, erythroid precursor immunophenotyping (FIG. 5C, 5D); assay type: in vivo, mouse; settings: starting on day 7 following sub-lethal irradiation, compared to placebo
[5] = tested on: erythroid cells generated from CD34+ cord blood progenitor cells; test: Human cord blood erythroid in vitro cell culture, erythroid proliferation (FIG. 3); assay type: cell-based; settings: serum-free medium with EPO (2 mU/ml)+IL-3 (10 ng/ml)+SCF (50 ng/ml)
Description: FIG. 3. Human in vitro experiments (effect of 5-HT combined with EPO). To determine the role played by serotonin in erythroid proliferation, inventors used a well-defined culture system that closely mimics the proliferation and differentiation of erythroid precursors in vivo. […] Erythroid cells were generated from CD34^+ cord blood progenitor cells in serum-free medium in the presence of EPO (2 mU/ml)+IL-3 (10 ng/ml)+stem cell factor (SCF; 50 ng/ml). Throughout data are mean±SEM. Unpaired t-test and Pearson linear and non-linear regressions were used when appropriate. *P<0.05, **P<0.005, ***P<0.0005.
Erythroid cells were generated from CD34^+ cord blood progenitor cells in serum-free medium in the presence of EPO (2 mU/ml)+IL-3 (10 ng/ml)+stem cell factor (SCF; 50 ng/ml) as previously described in Zermati et al., (2000) Exp. Hematol. 28:885-894.

CNCC[C@@H](Oc1ccc(C(F)(F)F)cc1)c1ccccc1 (racemic) [fluoxetine, (RS)-N-methyl-3-phenyl-3-propan-1-amine]
day of rapid and significant increase in the number of reticulocytes [1]: 3 days | day of normalization of Hb levels ([1]; placebo no normalization until day 22): 11 days | duration (length) of aplasia [2]: considerably reduced by at least two days | % of mice with Hemoglobin level ≤8 g/dl [3]: 100% | % of mice with Normal Hemoglobin level [3]: 0% | % of mice with Normal neutrophil number [3]: 20% | % of mice with Normal platelet level [3]: 0% | CD71+/TER119+ population [4]: significant increase

NCCc1c[nH]c2ccc(O)cc12 [5-HT, 5-hydroxytryptamine]
erythroid proliferation [5]: significantly enhances erythroid proliferation

Cn1c2c(c3ccccc31)CCNCC2 [PNU 22394]
erythroid proliferation [5]: significantly enhances erythroid proliferation

— patent US20220008514A1, “COMBINED USE OF SELECTIVE SEROTONIN REUPTAKE INHIBITORS AND HEMATOPOIETIC GROWTH FACTORS FOR TREATING HEMATOPOIETIC DISEASES” (IMAGINE INSTITUT DES MALADIES GENETIQUES NECKER ENFANTS …, priority 2018, published 2022)
